Earlier results in paper PMC4931877 (The Journal of Pharmacology and Experimental Therapeutics, 2016).

Tested on: γ-secretase
Conditions: ref Fleisher et al., 2008; Coric et al., 2012; Doody et al., 2013; cited from earlier work

SMILES | outcome of mild-moderate AD clinical trials
NC(=O)[C@@H](CCC(F)(F)F)N(Cc1ccc(-c2ncon2)cc1F)S(=O)(=O)c1ccc(Cl)cc1 [BMS-708163, (2R)-2-[(4-chlorophenyl)sulfonyl-[[2-fluoro-4-(1,2,4-oxadiazol-3-yl)phenyl]methyl]amino]-5,5,5-trifluoropentanamide] | Notch-related nonmelanoma skin cancers and/or progression and worsening of cognitive measures
CC(C)[C@H](O)C(=O)N[C@@H](C)C(=O)N[C@@H]1C(=O)N(C)CCc2ccccc21 [LY450139] | Notch-related nonmelanoma skin cancers and/or progression and worsening of cognitive measures
